Data published in publication PMC7180948, “New Insights into 4-Anilinoquinazolines as Inhibitors of Cardiac Troponin I–Interacting Kinase (TNNi3K)” (Molecules, 2020).

Experiments:
Assay in all cases: biochemical
Design in all cases: KINOMEscan competition binding panel (Eurofins DiscoverX), single concentration, % inhibition
Conditions in all cases: read-out: 7 at 1 µM % inhibition
ADCK3 = target: T1, ADCK3 (Homo sapiens, UniProt Q8NI60)
T1 construct: gene COQ8A
In short: (§1)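 A single 1 µM concentration of each compound is screened across upwards of 400 human kinases using the KINOMEscan format.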

CAMK2A = CAMK2A (Homo sapiens, UniProt Q9UQM7)
In short: as §1

CDK9 = CDK9 (Homo sapiens, UniProt P50750)
In short: as §1

CDKL2 = CDKL2 (Homo sapiens, UniProt Q92772)
In short: as §1

CDKL3 = CDKL3 (Homo sapiens, UniProt Q8IVW4)
In short: as §1

CDKL5 = CDKL5 (Homo sapiens, UniProt O76039)
In short: as §1

CHEK2 = CHEK2 (Homo sapiens, UniProt O96017)
In short: as §1

CSNK1A1L = CSNK1A1L (Homo sapiens, UniProt Q8N752)
Chain of CSNK1A1L (Q8N752 whole entry): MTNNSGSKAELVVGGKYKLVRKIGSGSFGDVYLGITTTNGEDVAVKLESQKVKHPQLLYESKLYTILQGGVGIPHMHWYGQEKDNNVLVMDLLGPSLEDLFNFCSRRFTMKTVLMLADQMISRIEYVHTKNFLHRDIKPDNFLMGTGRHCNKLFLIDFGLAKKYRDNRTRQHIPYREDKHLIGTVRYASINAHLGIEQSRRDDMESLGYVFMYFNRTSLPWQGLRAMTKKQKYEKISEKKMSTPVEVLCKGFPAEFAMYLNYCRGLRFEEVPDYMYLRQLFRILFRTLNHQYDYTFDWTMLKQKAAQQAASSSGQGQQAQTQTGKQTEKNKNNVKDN
In short: as §1

EPHA7 = EPHA7 (Homo sapiens, UniProt Q15375)
In short: as §1

EPHB3 = EPHB3 (Homo sapiens, UniProt P54753)
In short: as §1

FLT3(K663Q) = FLT3(K663Q) (Homo sapiens, UniProt P36888, K663Q)
In short: as §1

[1] = target: T2, JAK1(JH1domain-catalytic) (Homo sapiens, UniProt P23458)
T2 construct: JH1domain-catalytic
T2 sequence (P23458 whole entry): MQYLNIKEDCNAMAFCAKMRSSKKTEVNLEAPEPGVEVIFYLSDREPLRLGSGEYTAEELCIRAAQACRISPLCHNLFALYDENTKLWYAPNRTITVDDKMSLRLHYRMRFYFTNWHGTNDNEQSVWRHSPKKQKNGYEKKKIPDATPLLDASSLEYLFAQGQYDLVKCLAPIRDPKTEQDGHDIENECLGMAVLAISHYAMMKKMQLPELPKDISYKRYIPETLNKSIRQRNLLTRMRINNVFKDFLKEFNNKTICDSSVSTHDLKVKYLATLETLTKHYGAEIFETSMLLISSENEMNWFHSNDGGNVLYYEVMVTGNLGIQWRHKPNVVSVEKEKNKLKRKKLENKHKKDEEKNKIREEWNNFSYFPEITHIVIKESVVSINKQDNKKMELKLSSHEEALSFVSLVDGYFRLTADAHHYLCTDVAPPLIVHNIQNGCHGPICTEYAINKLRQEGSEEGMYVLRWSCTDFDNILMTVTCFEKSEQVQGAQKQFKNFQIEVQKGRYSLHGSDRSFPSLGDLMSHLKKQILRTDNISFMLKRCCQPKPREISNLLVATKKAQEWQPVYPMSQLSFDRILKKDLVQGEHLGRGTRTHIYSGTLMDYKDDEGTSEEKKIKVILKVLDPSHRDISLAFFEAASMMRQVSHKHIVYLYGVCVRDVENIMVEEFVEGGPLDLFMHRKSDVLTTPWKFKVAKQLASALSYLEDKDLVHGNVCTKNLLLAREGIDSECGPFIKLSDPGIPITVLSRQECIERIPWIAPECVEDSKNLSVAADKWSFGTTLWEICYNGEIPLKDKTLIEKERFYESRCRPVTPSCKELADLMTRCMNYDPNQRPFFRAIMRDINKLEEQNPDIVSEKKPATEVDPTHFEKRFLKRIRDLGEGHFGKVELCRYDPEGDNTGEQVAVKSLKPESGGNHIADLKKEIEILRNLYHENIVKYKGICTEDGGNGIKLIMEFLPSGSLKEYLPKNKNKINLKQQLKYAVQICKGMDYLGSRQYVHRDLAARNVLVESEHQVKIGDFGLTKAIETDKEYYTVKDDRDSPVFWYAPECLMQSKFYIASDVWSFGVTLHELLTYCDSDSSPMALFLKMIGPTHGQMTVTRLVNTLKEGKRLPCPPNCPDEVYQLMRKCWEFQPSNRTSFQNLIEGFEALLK
In short: as §1

LIMK1 = LIMK1 (Homo sapiens, UniProt P53667)
Chain of LIMK1 (P53667 whole entry): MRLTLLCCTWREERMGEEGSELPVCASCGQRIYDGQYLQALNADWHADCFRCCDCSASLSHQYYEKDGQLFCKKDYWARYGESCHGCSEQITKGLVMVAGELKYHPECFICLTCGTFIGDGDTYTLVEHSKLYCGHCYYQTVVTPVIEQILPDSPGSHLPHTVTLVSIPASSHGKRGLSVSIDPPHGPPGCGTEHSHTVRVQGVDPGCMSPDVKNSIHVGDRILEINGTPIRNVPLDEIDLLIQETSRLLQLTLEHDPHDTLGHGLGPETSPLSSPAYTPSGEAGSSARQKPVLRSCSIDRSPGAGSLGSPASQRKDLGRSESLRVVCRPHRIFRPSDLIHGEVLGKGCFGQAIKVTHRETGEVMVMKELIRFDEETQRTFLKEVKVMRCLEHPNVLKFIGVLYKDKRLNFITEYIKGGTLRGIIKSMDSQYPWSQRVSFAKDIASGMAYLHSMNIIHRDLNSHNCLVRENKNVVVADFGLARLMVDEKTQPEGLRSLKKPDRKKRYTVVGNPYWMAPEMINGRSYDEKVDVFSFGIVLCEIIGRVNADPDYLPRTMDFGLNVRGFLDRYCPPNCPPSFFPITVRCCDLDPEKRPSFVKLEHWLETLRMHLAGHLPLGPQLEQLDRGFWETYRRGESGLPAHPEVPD
In short: as §1

NEK4 = NEK4 (Homo sapiens, UniProt P51957)
In short: as §1

NEK6 = NEK6 (Homo sapiens, UniProt Q9HC98)
In short: as §1

NIM1 = target: T3, NIM1 (Homo sapiens, UniProt Q8IY84)
T3 construct: gene NIM1K
In short: as §1

PAK3 = PAK3 (Homo sapiens, UniProt O75914)
In short: as §1

PCTK2 = target: T4, PCTK2 (Homo sapiens, UniProt Q00537)
T4 construct: gene CDK17
T4 sequence (Q00537 whole entry): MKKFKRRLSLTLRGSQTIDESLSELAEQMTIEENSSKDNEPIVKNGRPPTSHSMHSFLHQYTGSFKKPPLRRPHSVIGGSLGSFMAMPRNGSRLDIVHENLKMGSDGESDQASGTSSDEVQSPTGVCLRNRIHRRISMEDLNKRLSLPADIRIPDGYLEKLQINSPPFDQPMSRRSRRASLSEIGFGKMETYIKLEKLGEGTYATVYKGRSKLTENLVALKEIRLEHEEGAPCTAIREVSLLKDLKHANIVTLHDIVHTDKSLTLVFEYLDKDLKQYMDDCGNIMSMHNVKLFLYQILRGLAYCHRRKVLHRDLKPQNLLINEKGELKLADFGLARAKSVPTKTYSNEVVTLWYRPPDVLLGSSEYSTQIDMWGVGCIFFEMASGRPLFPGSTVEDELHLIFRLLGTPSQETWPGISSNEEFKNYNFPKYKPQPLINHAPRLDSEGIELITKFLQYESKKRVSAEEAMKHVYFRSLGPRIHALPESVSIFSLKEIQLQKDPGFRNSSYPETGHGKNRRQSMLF
In short: as §1

PIK4CB = target: T5, PIK4CB (Homo sapiens, UniProt Q9UBF8)
T5 construct: gene PI4KB
T5 sequence (Q9UBF8 whole entry): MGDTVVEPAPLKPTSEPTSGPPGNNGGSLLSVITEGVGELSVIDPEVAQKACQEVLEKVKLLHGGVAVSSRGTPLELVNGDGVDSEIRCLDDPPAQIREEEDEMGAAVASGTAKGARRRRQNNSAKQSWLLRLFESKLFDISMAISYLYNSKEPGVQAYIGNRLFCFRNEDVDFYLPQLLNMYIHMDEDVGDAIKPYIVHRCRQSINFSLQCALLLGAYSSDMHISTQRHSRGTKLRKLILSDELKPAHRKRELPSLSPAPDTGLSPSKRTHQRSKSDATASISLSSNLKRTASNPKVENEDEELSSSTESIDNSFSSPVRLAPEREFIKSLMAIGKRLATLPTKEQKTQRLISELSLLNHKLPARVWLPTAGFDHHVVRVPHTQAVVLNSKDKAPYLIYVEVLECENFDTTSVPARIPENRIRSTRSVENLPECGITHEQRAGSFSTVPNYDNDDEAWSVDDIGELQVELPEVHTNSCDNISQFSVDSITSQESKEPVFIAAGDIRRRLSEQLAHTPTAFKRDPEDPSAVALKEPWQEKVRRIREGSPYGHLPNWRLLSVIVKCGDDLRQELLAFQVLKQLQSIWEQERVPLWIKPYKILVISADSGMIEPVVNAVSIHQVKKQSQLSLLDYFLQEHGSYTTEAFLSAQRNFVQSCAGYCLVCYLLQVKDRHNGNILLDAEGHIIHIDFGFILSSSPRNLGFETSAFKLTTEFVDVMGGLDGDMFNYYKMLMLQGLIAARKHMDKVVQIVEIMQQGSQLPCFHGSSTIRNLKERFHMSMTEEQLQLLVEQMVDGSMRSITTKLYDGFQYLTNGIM
In short: as §1

PIP5K1A = PIP5K1A (Homo sapiens, UniProt Q99755)
In short: as §1

PRKX = PRKX (Homo sapiens, UniProt P51817)
Chain of PRKX (P51817 whole entry): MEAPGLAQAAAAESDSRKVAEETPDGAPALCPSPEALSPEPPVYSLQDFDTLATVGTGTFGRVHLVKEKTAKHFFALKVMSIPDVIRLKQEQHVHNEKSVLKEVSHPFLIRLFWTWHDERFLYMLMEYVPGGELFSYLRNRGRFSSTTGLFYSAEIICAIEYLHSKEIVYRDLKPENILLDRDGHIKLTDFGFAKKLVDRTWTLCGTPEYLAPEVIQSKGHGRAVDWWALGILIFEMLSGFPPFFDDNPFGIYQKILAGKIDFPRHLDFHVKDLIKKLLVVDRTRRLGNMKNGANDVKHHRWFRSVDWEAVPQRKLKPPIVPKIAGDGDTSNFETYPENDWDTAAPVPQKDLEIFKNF
In short: as §1

RIPK2 = RIPK2 (Homo sapiens, UniProt O43353)
In short: as §1

RIPK5 = target: T6, RIPK5 (Homo sapiens, UniProt Q6XUX3)
T6 construct: gene DSTYK
In short: as §1

TEC = TEC (Homo sapiens, UniProt P42680)
In short: as §1

TGFBR1 = TGFBR1 (Homo sapiens, UniProt P36897)
Chain of TGFBR1 (P36897 whole entry): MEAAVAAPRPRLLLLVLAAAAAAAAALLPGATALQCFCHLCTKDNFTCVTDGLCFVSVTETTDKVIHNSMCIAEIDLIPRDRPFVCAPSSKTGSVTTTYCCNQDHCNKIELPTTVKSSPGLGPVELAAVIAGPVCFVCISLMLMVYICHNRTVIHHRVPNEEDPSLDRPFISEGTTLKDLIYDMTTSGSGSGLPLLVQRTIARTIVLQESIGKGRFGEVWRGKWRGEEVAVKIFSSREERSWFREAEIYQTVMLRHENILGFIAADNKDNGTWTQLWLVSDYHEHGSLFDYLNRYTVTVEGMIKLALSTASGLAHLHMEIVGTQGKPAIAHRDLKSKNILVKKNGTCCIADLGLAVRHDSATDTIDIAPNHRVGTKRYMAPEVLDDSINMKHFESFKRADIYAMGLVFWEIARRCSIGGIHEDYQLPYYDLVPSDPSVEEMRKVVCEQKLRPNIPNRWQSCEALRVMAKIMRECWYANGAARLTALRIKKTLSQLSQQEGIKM
In short: as §1

T1 sequence (Q8NI60 whole entry): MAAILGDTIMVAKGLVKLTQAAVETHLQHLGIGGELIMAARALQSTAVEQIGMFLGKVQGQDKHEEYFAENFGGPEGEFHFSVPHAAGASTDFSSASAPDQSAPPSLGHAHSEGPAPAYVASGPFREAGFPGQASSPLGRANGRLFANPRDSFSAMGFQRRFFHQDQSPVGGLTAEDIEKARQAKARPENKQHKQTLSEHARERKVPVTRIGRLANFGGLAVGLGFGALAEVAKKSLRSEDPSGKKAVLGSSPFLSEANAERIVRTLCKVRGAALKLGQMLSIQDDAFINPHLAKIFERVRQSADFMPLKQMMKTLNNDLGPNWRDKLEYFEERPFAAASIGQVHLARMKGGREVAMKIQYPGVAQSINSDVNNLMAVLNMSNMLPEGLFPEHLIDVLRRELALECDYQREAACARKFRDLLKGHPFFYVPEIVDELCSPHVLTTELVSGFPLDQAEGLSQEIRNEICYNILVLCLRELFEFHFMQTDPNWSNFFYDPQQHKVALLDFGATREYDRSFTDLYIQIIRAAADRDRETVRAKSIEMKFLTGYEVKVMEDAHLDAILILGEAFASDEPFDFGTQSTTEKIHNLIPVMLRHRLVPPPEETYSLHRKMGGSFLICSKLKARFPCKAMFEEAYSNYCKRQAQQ

With `CNS(=O)(=O)c1ccc(N(C)C)c(Nc2ncnc3cc(OC)c(OC)cc23)c1` [compound 7, 3-((6,7-dimethoxyquinazolin-4-yl)amino)-4-(dimethylamino)-N-methylbenzenesulfonamide] the inhibition at 1 µM (ADCK3) was 50%, the inhibition at 1 µM (CAMK2A) was 9% and the inhibition at 1 µM (CDK9) was 0%. It also gave an inhibition at 1 µM (CDKL2) of 0%, an inhibition at 1 µM (CDKL3) of 0% and an inhibition at 1 µM (CDKL5) of 9%. The inhibition at 1 µM (CHEK2) was 11%, the inhibition at 1 µM (CSNK1A1L) was 0% and the inhibition at 1 µM (EPHA7) was 0%. It also gave an inhibition at 1 µM (EPHB3) of 0%, an inhibition at 1 µM (FLT3(K663Q)) of 7% and an inhibition at 1 µM [1] of 0%. For the same compound, the inhibition at 1 µM (LIMK1) was 0%, the inhibition at 1 µM (NEK4) was 12% and the inhibition at 1 µM (NEK6) was 0%. The inhibition at 1 µM (NIM1) was 31%, the inhibition at 1 µM (PAK3) was 54% and the inhibition at 1 µM (PCTK2) was 0%. For the same compound, the inhibition at 1 µM (PIK4CB) was 14%, the inhibition at 1 µM (PIP5K1A) was 0% and the inhibition at 1 µM (PRKX) was 0%. For the same compound, the inhibition at 1 µM (RIPK2) was 28%, the inhibition at 1 µM (RIPK5) was 49% and the inhibition at 1 µM (TEC) was 0%. For the same compound, the inhibition at 1 µM (TGFBR1) was 0%.
